Laboratory results reported in PMC9950431, “A bivalent remipede toxin promotes calcium release via ryanodine receptor activation” (Nature Communications, 2023).
“Also recorded” adds a separate entry of the source.

Assays:
[1] = tested on: SH-SY5Y neuroblastoma cells; assay: FLIPR intracellular Ca2+ assay, SH-SY5Y cells (direct response); type: cell-based, human; settings: Xt3a 3 µM
Experimental: (§1) SH-SY5Y human neuroblastoma cells (European Collection of Authenticated Cell Culture, Sigma Aldrich, 94030304-1VL) were cultured in RPMI media (ThermoFisher Scientific, Scoresby, Australia) supplemented with 15% foetal bovine serum and L-glutamine (1 mM) and passaged at approximately 80% confluency with TrypLE Express (Thermo Fisher, Australia). For fluorescence imaging, cells were plated on CellBIND (Corning) 384-well black-walled imaging plates at a density of 20,000–30,000 cells/well in complete media and cultured for 48 h at 37 °C/5% CO2.
Briefly, SH-SY5Y cells were loaded with Calcium 4 no-wash dye (Molecular Devices) diluted in physiological salt solution (composition in mM: NaCl 140, D-glucose 11.5, KCl 5.9, MgCl2 1.4, NaH2PO4 1.2, NaHCO3 5, CaCl2 1.8, HEPES 10) for 30 min at 37 °C. A two-addition FLIPR^Tetra (Molecular Devices) protocol using the following settings was used to measure fluorescence responses: excitation 470–495 nm; emission 515–575 nm; excitation intensity 80%; excitation duration 0.8 s; gain 140; read interval 1/s; read number 300/addition. […] Raw fluorescence readings were converted to response over baseline using the analysis tool Screenworks 3.1.1.4 (Molecular Devices) and were expressed relative to the maximum increase in fluorescence of control responses and plotted using GraphPad Prism 9.3.1.

CaV1.3 = assay: FLIPR Ca2+ assay, inhibition of endogenous CaV1.3; type: cell-based, human; settings: for Ca2+ response relative to control response: 3 µM Xt3a pre-treatment, KCl 90 mM/CaCl2 5 mM, over 300 s
Experimental: as §1
Briefly, SH-SY5Y cells were loaded with Calcium 4 no-wash dye (Molecular Devices) diluted in physiological salt solution (composition in mM: NaCl 140, D-glucose 11.5, KCl 5.9, MgCl2 1.4, NaH2PO4 1.2, NaHCO3 5, CaCl2 1.8, HEPES 10) for 30 min at 37 °C. A two-addition FLIPR^Tetra (Molecular Devices) protocol using the following settings was used to measure fluorescence responses: excitation 470–495 nm; emission 515–575 nm; excitation intensity 80%; excitation duration 0.8 s; gain 140; read interval 1/s; read number 300/addition. Responses mediated via endogenously expressed ion channels were elicited by addition of: choline (30 μM)/PNU-120596 (10 μM) for α7 nAChR-mediated responses; nicotine (30 μM) for α3β2/α3β4 nAChR-mediated responses; KCl (90 mM)/CaCl2 (5 mM) for CaV1.3-mediated responses; KCl (90 mM)/CaCl2 (5 mM) + nifedipine (10 μM) for CaV2.2-mediated responses; vertridine (70 μM) for NaV1.2-mediated responses; and veratridine (4 μM)/OD1 (300 nM) for NaV1.7-mediated responses. Raw fluorescence readings were converted to response over baseline using the analysis tool Screenworks 3.1.1.4 (Molecular Devices) and were expressed relative to the maximum increase in fluorescence of control responses and plotted using GraphPad Prism 9.3.1.
In the cell-based FLIPR assays statistical analysis was performed using GraphPad Prism 9.3.1. Statistical significance was defined as p < 0.05, and determined by one-sample t-test assessing difference to the control value of 100%. In α7 nAChR, α3-containing nAChR, CaV1.3, CaV2.2, NaV1.2 and NaV1.7 channels (Supplementary Fig. 5B), with distribution (t) and degrees of freedom (df) being: t = 0.9683, df = 2 (α7); t = 1.338, df = 2 (α3); t = 1.775, df = 2 (NaV1.2); t = 1.478

## φ-Xibalbin3-Xt3a
[1]
  increase in intracellular Ca2+: did not elicit an increase in intracellular Ca^2+; also recorded: does not elicit an increase in intracellular Ca2+ responses
CaV1.3; replicate 1
  Ca2+ response relative to control response: 100.265%
CaV1.3; replicate 2
  Ca2+ response relative to control response: 98.0302%
CaV1.3; replicate 3
  Ca2+ response relative to control response: 95.1795%
CaV1.3; Xt3a 3 µM
  inhibition of Ca2+ responses: did not inhibit Ca^2+ responses
